Article PMC5782818 (Bioorganic & medicinal chemistry letters, 2017)

Columns and labels:
METH self-administration = settings: rats; cited from earlier work
[1] = test system: sucrose-maintained responding; settings: rats; cited from earlier work
VMAT2 [2] = molecular target: T1, VMAT2 (Rattus norvegicus, UniProt Q01827); assay: Vesicular [^3H]DA uptake assay; type: biochemical
[3] = cited from earlier work
VMAT2 [4] = molecular target: T1, VMAT2; settings: cited from earlier work

T1 sequence (Q01827 whole entry): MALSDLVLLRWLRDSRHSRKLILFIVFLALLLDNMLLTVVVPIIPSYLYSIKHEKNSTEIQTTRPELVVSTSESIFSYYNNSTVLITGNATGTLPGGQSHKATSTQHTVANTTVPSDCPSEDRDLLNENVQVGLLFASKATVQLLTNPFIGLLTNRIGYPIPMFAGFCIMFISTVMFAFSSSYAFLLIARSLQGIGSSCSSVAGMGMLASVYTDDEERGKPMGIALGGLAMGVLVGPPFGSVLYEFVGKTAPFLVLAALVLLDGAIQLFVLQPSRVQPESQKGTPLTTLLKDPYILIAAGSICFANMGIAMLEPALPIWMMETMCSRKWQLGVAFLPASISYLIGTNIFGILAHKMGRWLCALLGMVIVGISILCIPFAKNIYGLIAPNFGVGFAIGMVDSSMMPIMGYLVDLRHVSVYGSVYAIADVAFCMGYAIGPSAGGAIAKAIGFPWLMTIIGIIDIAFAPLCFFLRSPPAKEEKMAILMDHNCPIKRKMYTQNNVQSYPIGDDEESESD

## CN1[C@@H](CCc2ccccc2)CCC[C@H]1CCc1ccccc1 [lobelane]
METH self-administration
  effect on METH self-administration: dose-dependently decreased
[1]
  effect on sucrose-maintained responding: without decreasing

## Cl.Cl.FCCOc1ccc(CCN2CCN(CCc3ccccc3Cl)CC2)cc1 [Compound 15f, 1-(2-chlorophenethyl)-4-(4-(2-fluoroethoxy)phenethyl)piperazine]
VMAT2 [2]
  fold less potent at VMAT2 than 15d: 32 fold

## CN1[C@@H](CC(=O)c2ccccc2)CCC[C@H]1C[C@H](O)c1ccccc1 [lobeline]
[3]
  side-effects in clinical trials: bitter taste and nausea
VMAT2 [4]
  effect on DA uptake into synaptic vesicles via VMAT2: inhibit
